± gives the standard deviation of the averaged measurements.
Compound: CC(=O)N1CCc2c(c(N3CCCc4cc(-c5cnn(C)c5)c(C(F)F)cc43)nn2C2CCC(CN3CCN(c4ccc5c(c4)C(=O)N(C4CCC(=O)NC4=O)C5=O)CC3)CC2)C1 [CBPD-409]
Experiment: AUC of viability dose-response curve (relative to vehicle, 8 doses up to 10 µM) (fraction); higher = less sensitive (more viable); extreme values may be limits of the assay
Description: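 PRISM multiplexed pooled barcoded cell line viability screen at the Broad Institute, 887 cancer cell lines treated with CBPD-409 (p300/CBP PROTAC degrader) at 8 concentrations in threefold dilution, top dose 10 µM. The read-out is the area under the dose-response curve of relative viability versus vehicle (n=3). AUC < 0.3 is called strongly sensitive and AUC > 0.8 resistant.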

Test System | AUC of viability dose-response curve
LNZ308_CENTRAL_NERVOUS_SYSTEM | 0.998
LOUNH91_LUNG | 0.731
LOVO_LARGE_INTESTINE | 0.131
LOXIMVI_SKIN | 0.845
LPS141_SOFT_TISSUE | 1
LS180_LARGE_INTESTINE | 0.961
LS411N_LARGE_INTESTINE | 0.988
LS513_LARGE_INTESTINE | 0.568
LS1034_LARGE_INTESTINE | 0.295
LS_AUTONOMIC_GANGLIA | 0.248
LU99_LUNG | 0.831
LUDLU1_LUNG | 1
LXF289_LUNG | 0.522
M059K_CENTRAL_NERVOUS_SYSTEM | 0.673
MALME3M_SKIN | 0.272
MB1_THYROID | 0.776
MC116_HAEMATOPOIETIC_AND_LYMPHOID_TISSUE | 0.804
MCAS_OVARY | 1
MCC13_SKIN | 1
MCC26_SKIN | 0.98
MCC142_SKIN | 0.969
MCF7_BREAST | 0.701
MDAMB175VII_BREAST | 0.999
MDAMB231_BREAST | 0.701
MDAMB361_BREAST | 0.368

Test System | AUC of viability dose-response curve
MDAMB435S_SKIN | 1
MDAMB436_BREAST | 0.505
MDAMB453_BREAST | 0.401
MDAMB468_BREAST | 0.97
MDAPCA2B_PROSTATE | 0.266
MEG01_HAEMATOPOIETIC_AND_LYMPHOID_TISSUE | 0.74
MEL285_UVEA | 0.639
MEL290_UVEA | 0.688
MELHO_SKIN | 0.263
MELJUSO_SKIN | 1
MESSA_SOFT_TISSUE | 0.126
MEWO_SKIN | 0.268
MFE280_ENDOMETRIUM | 0.581
MFE296_ENDOMETRIUM | 0.514
MFE319_ENDOMETRIUM | 0.353
MG63_BONE | 1
MHHES1_BONE | 0.842 ± 0.2
MHHNB11_AUTONOMIC_GANGLIA | 0.488
MIAPACA2_PANCREAS | 1
MKN1_STOMACH | 1
MKN7_STOMACH | 0.517
MKN45_STOMACH | 0.238
MKN74_STOMACH | 0.493
MM1S_HAEMATOPOIETIC_AND_LYMPHOID_TISSUE | 0.328
MM127_SKIN | 1

Test System | AUC of viability dose-response curve
MMNK1_BILIARY_TRACT | 0.479
MOLM13_HAEMATOPOIETIC_AND_LYMPHOID_TISSUE | 0.356
MOLM14_HAEMATOPOIETIC_AND_LYMPHOID_TISSUE | 0.212
MOLP2_HAEMATOPOIETIC_AND_LYMPHOID_TISSUE | 0.555
MOLT3_HAEMATOPOIETIC_AND_LYMPHOID_TISSUE | 1
MOLT13_HAEMATOPOIETIC_AND_LYMPHOID_TISSUE | 1
MOLT16_HAEMATOPOIETIC_AND_LYMPHOID_TISSUE | 0.445
MONOMAC1_HAEMATOPOIETIC_AND_LYMPHOID_TISSUE | 1
MONOMAC6_HAEMATOPOIETIC_AND_LYMPHOID_TISSUE | 0.577
MON_SOFT_TISSUE | 0.486
MP41_UVEA | 0.212
MPP89_PLEURA | 1
MS751_CERVIX | 0.923
MSTO211H_PLEURA | 0.672
NALM6_HAEMATOPOIETIC_AND_LYMPHOID_TISSUE | 0.331
NB1_AUTONOMIC_GANGLIA | 0.112 ± 0.083
NB4_HAEMATOPOIETIC_AND_LYMPHOID_TISSUE | 0.277
NCIH23_LUNG | 0.771
NCIH28_PLEURA | 1
NCIH82_LUNG | 1
NCIH157DM_LUNG | 0.559
NCIH196_LUNG | 0.755
NCIH226_LUNG | 0.519
NCIH292_LUNG | 0.831
NCIH322_LUNG | 0.574

Test System | AUC of viability dose-response curve
NCIH358_LUNG | 1
NCIH441_LUNG | 0.558
NCIH446_LUNG | 0.445
NCIH460_LUNG | 1
NCIH520_LUNG | 0.861
NCIH522_LUNG | 0.942
NCIH524_LUNG | 1
NCIH596_LUNG | 1
NCIH647_LUNG | 1
NCIH650_LUNG | 0.606
NCIH661_LUNG | 0.567
NCIH727_LUNG | 0.875
NCIH747_LARGE_INTESTINE | 1
NCIH838_LUNG | 0.893
NCIH841_LUNG | 0.855
NCIH1048_LUNG | 0.878
NCIH1092_LUNG | 1
NCIH1299_LUNG | 0.79
NCIH1341_LUNG | 1
NCIH1355_LUNG | 1
NCIH1373_LUNG | 1
NCIH1435_LUNG | 1
NCIH1437_LUNG | 0.895
NCIH1563_LUNG | 0.445
NCIH1568_LUNG | 0.958

Test System | AUC of viability dose-response curve
NCIH1573_LUNG | 0.699
NCIH1581_LUNG | 0.347
NCIH1623_LUNG | 0.92
NCIH1648_LUNG | 0.448
NCIH1650_LUNG | 0.583
NCIH1651_LUNG | 1
NCIH1693_LUNG | 0.949
NCIH1703_LUNG | 0.78
NCIH1792_LUNG | 0.59
NCIH1793_LUNG | 0.838
NCIH1838_LUNG | 0.758
NCIH1876_LUNG | 1
NCIH1915_LUNG | 0.697
NCIH1944_LUNG | 1
NCIH1975_LUNG | 0.862
NCIH2004RT_SOFT_TISSUE | 1
NCIH2009_LUNG | 0.596
NCIH2023_LUNG | 1
NCIH2030_LUNG | 1
NCIH2052_PLEURA | 0.444
NCIH2087_LUNG | 0.834
NCIH2110_LUNG | 0.703
NCIH2122_LUNG | 0.654
NCIH2126_LUNG | 1
NCIH2170_LUNG | 1

Test System | AUC of viability dose-response curve
NCIH2171_LUNG | 1
NCIH2172_LUNG | 0.62
NCIH2196_LUNG | 1
NCIH2228_LUNG | 0.91
NCIH2347_LUNG | 0.648
NCIH2444_LUNG | 1
NCIH2452_PLEURA | 1
NCO2_HAEMATOPOIETIC_AND_LYMPHOID_TISSUE | 0.243
NIHOVCAR3_OVARY | 1
NOMO1_HAEMATOPOIETIC_AND_LYMPHOID_TISSUE | 0.279
NOZ_LIVER | 1
NP2_CENTRAL_NERVOUS_SYSTEM | 0.868
NP3_CENTRAL_NERVOUS_SYSTEM | 0.802
NP5_CENTRAL_NERVOUS_SYSTEM | 0.488
NUDHL1_HAEMATOPOIETIC_AND_LYMPHOID_TISSUE | 0.67
NUGC3_STOMACH | 1
NUGC4_STOMACH | 0.344
NZOV9_OVARY | 1
OACM51_OESOPHAGUS | 1
OAW42_OVARY | 0.814
OC314_OVARY | 0.619
OC316_OVARY | 0.486
OCIAML2_HAEMATOPOIETIC_AND_LYMPHOID_TISSUE | 0.551
OCIAML5_HAEMATOPOIETIC_AND_LYMPHOID_TISSUE | 0.461
OCIC4P_OVARY | 0.99

— the supplement of paper PMC12513837
